According to patent US20160136197A1, “Pharmaceutical Compositions Comprising a GPG Oligodeoxynucleotide and Cyclic Di-GMP” (INTERVET INTERNATIONAL B.V., priority 2013, published 2016):

Experiments:
[1] = tested on: Mouse bone marrow dendritic cells; assay: IL12 production by bone marrow dendritic cells, ELISA; assay type: cell-based; conditions: overnight incubation of 1.2×10^5 DCs; CpG 1 μg/ml, c-GMP 10 μg/ml, c-di-GMP 10 μg/ml
Procedure: (§1) Mouse bone marrow dendritic cells were cultured with granulocyte-macrophage colony-stimulating factor (GM-CSF) and harvested at day 7 of culture. 1.2×10^5 cells were exposed during overnight incubation to the following immunopotentiators: CpG 1668 1 μg/ml, c-GMP 10 μg/ml, c-di-GMP 10 μg/ml. Next, supernatant was carefully harvested and IL12 or type-I IFN production was determined. For IL12 an ELISA method was used according to the manufacturer's instructions (BD Biosciences). Type-I IFN was determined by a standard bioassay using L929 ISRE reporter cells.
(§2) Kaplan Meier survival curves were analyzed using a log rank test. Cytokine data was analyzed using ANOVA with a post-hoc Bonferroni test.
FIG. 3. Synergistic IL12 production by DCs upon combined treatment with c-di-GMP and CpG. Mouse bone marrow dendritic cells were cultured with GM-CSF and harvested at day 7 of culture. 1.2×10^5 cells were exposed during overnight incubation to the indicated immunopotentiators: CpG 1 μg/ml, c-GMP 10 μg/ml, c-di-GMP 10 μg/ml. Next, supernatant was harvested and IL12 production was determined by standard ELISA methods. Results are shown as means with sem, *=p<0.001. Similar results were obtained in three independent experiments.

B16F10 melanoma cells = assay: Cryo ablation of established B16F10 tumors plus peri-tumoral immunopotentiator, re-challenge after 40 days, Kaplan-Meier survival; assay type: in vivo, C57BL/6n mice; conditions: cryo ablation combined with immunopotentiator; for survival rate after 60 days: 30 μg p.t. within 30 min. after ablation, re-challenge with 15*10^3 B16F10 cells s.c. 40 days after ablation; for protection from tumor outgrowth (re-challenge, Kaplan-Meier): re-challenge 40 days later, result in words
Procedure: C57BL/6n mice (6-8 weeks old) were purchased from Charles River Wiga (Sulzfeld, Germany) and maintained under specific pathogen-free barrier conditions at the Central Animal Laboratory (Nijmegen, The Netherlands). Drinking water and standard laboratory food pellets were provided ad libitum and mice were allowed to settle for at least 1 week before random assignment into specific treatment groups. The experiments were performed according to the guidelines for animal care of the Nijmegen Animal Experiments Committee.
The murine melanoma cell line B16F10 (ATCC) was cultured in complete medium (MEM, 5% fetal bovine serum (Greiner Bio-one), 100 U/ml penicillin G sodium and 100 μg/ml streptomycin (Pen/Strep), MEM sodium pyruvate (1 mM), NaHCO3, MEM vitamins, MEM non-essential amino acids (all from Gibco), 20 μM β-mercaptoethanol (β-ME)).
B16F10 melanoma cells were suspended in a mixture of PBS and Matrigel (2:1), and 0.5*10^6 cells in a total volume of 50 μl were injected s.c. at the right femur. When tumor diameters measured between 6-8 mm (generally at day 9-10) they were randomly assigned to treatment groups. Cryo ablation (Cryo) was performed under isoflurane/O2/N2O anesthesia using a liquid nitrogen cryo ablation system (CS76, Frigitronics, Shelton, Conn.) of which the tip is cooled by a continuous flow of circulating liquid nitrogen. During 2 treatment cycles of freezing and thawing the tumor was macroscopically frozen, while leaving surrounding healthy tissue intact. To monitor the induction of long-lasting tumor protection, mice were re-challenged with 15*10^3 B16F10 cells 40 days after cryo ablation. Re-challenges were injected in 100 μl PBS s.c. on the right flank. Mice were sacrificed when tumor volume exceeded 1000 mm^3 or when tumors brake through the skin barrier.
CpG 1668 (‘5-[…]-3’) with total phosphorothioate-modified backbone was purchased from Sigma Genosys (Haverhill, UK). C-di-GMP was synthesized as described by Spehr V, Warrass R, Höcherl K, Ilg T., in Appl. Biochem. Biotechnol. 2011 Oct;165(3-4):761-75. CpG and/or C-di-GMP were peri-tumorally injected in PBS (p.t., 30 μg divided over 2 injections of 20 μl lining the ablated tumor). All injections were done within 30 min. after ablation.
as §2
FIG. 1. Anti-tumor memory response following ablation combined with C-di-GMP and CpG. Established B16F10 tumors growing subcutaneously on the right femur were treated with cryo ablation alone, or combined with the indicated immunopotentiators Immunopotentiators ([…]) were injected in 40 μl PBS in the peri-tumoral area following the ablation. […]

[2] = tested on: Mouse bone marrow dendritic cells; assay: Type-I IFN production by bone marrow dendritic cells, bioassay using L929 ISRE reporter cells; assay type: cell-based; conditions: overnight incubation of 1.2×10^5 DCs; CpG 1 μg/ml, c-GMP 10 μg/ml, c-di-GMP 10 μg/ml
Procedure: as §1, §2
FIG. 2. Synergistic type I IFN production by DCs upon combined treatment with c-di-GMP and CpG. Mouse bone marrow dendritic cells were cultured with GM-CSF and harvested at day 7 of culture. 1.2×10^5 cells were exposed during overnight incubation to the indicated immmunopotentiators or combinations of immunopotentiators: CpG 1 μg/ml, c-GMP 10 μg/ml, c-di-GMP 10 μg/ml. Next, supernatant was harvested and type I IFN production was determined by a standard bioassay using L929 ISRE cells. Results are shown as means with sem, *=p<0.001 vs. all other bars. Similar results were obtained in three independent experiments.

human colon cancer cell = conditions: in vitro; cited from earlier work

| Compound | IL12 production (in words) [1] | survival rate after 60 days (B16F10 melanoma cells) | protection from tumor outgrowth (re-challenge, Kaplan-Meier) (B16F10 melanoma cells) | type I IFN production (in words) [2] | effect on basal and GF-stimulated cancer cell proliferation (human colon cancer cell) | type I IFN production [2] |
| --- | --- | --- | --- | --- | --- | --- |
| 5-TCCATGACGTTCCTGATGCT-3 (DNA, all phosphorothioate, methylation of C not given here) [CpG 1668, CpG ODN 20-mer, TLR9 agonist, purchased from Sigma Genosys] | modest level of IL12 production | approx. 50% | increased protection from tumor outgrowth | no IFN or only modest amounts of IFN |  |  |
| Nc1nc2c(ncn2[C@@H]2O[C@@H]3COP(=O)(O)O[C@H]3[C@H]2O)c(=O)[nH]1 [c-GMP] | do not produce IL12 |  |  | no IFN or only modest amounts of IFN |  |  |
| Nc1nc2c(ncn2C2OC3COP(=O)(O)OC4C(COP(=O)(O)OC3C2O)OC(n2cnc3c(=O)[nH]c(N)nc32)C4O)c(=O)[nH]1 (centres unmarked) [c-di-GMP, 3′,5′-cyclic diguanylic acid] | do not produce IL12 | approx. 50% | increased protection from tumor outgrowth |  | inhibitory effect | < 50 U/ml |
